Reference: PubChem BioAssay AID1259407 (Chemical Carcinogenesis Research Information System (CCRIS), 2018)
Activity calls are given as the source filed them. No rule for the calls is given here.

Test system: CCRIS mutagenicity, Ames/micronucleus/aberration tests
Assay: CCRIS mutagenicity studies
[1] = Test System: AMES SALMONELLA TYPHIMURIUM, Strain/Indicator: TA98, Metabolic Activation: NONE, Method: STANDARD PLATE
[2] = Test System: AMES SALMONELLA TYPHIMURIUM, Strain/Indicator: TA98, Metabolic Activation: NONE, Method: PREINCUBATION

**Q.** What does the source list for CC1(C)C(C=C(Cl)Cl)C1C(=O)OCc1cccc(Oc2ccccc2)c1 (centres undefined)?
**A.** mutagenic call (Test System: AMES SALMONELLA TYPHIMURIUM, Strain/Indicator: TA97A, Metabolic Activation: NONE, Method: STANDARD PLATE): inactive; negative; mutagenic call (Test System: AMES SALMONELLA TYPHIMURIUM, Strain/Indicator: TA97A, Metabolic Activation: RAT, CECAL CELL FREE EXTRACT, Method: STANDARD PLATE): inactive; negative; mutagenic call (Test System: AMES SALMONELLA TYPHIMURIUM, Strain/Indicator: TA97A, Metabolic Activation: RAT, LIVER, S-9, AROCLOR 1254, Method: STANDARD PLATE): inactive; negative; mutagenic call (Test System: AMES SALMONELLA TYPHIMURIUM, Strain/Indicator: TA98, Metabolic Activation: NONE): active; positive; mutagenic call (Test System: AMES SALMONELLA TYPHIMURIUM, Strain/Indicator: TA98, Metabolic Activation: NONE, Method: MICROSUSPENSION): inactive; negative; mutagenic call [1]: inactive; negative; mutagenic call (Test System: AMES SALMONELLA TYPHIMURIUM, Strain/Indicator: TA98, Metabolic Activation: RAT, CECAL CELL FREE EXTRACT, Method: STANDARD PLATE): inactive; negative; mutagenic call (Test System: AMES SALMONELLA TYPHIMURIUM, Strain/Indicator: TA98, Metabolic Activation: RAT, LIVER, S-9, AROCLOR 1254, Method: STANDARD PLATE): inactive; negative; mutagenic call (Test System: AMES SALMONELLA TYPHIMURIUM, Strain/Indicator: TA98, Metabolic Activation: RAT, LIVER, S-9, POLYCHLORINATED BIPHENYLS): inactive; negative; mutagenic call (Test System: AMES SALMONELLA TYPHIMURIUM, Strain/Indicator: TA98, Metabolic Activation: S-9, Method: MICROSUSPENSION): inactive; negative; mutagenic call (Test System: AMES SALMONELLA TYPHIMURIUM, Strain/Indicator: TA100): inactive; negative; mutagenic call (Test System: AMES SALMONELLA TYPHIMURIUM, Strain/Indicator: TA100, Metabolic Activation: NONE): inactive; negative; mutagenic call (Test System: AMES SALMONELLA TYPHIMURIUM, Strain/Indicator: TA100, Metabolic Activation: NONE, Method: MICROSUSPENSION): inactive; negative; mutagenic call (Test System: AMES SALMONELLA TYPHIMURIUM, Strain/Indicator: TA100, Metabolic Activation: NONE, Method: STANDARD PLATE): inactive; negative; mutagenic call (Test System: AMES SALMONELLA TYPHIMURIUM, Strain/Indicator: TA100, Metabolic Activation: RAT, CECAL CELL FREE EXTRACT, Method: STANDARD PLATE): inactive; negative; mutagenic call (Test System: AMES SALMONELLA TYPHIMURIUM, Strain/Indicator: TA100, Metabolic Activation: RAT, LIVER, S-9, AROCLOR 1254, Method: STANDARD PLATE): inactive; negative; mutagenic call (Test System: AMES SALMONELLA TYPHIMURIUM, Strain/Indicator: TA100, Metabolic Activation: S-9, Method: MICROSUSPENSION): inactive; negative; mutagenic call (Test System: AMES SALMONELLA TYPHIMURIUM, Strain/Indicator: TA1535, Metabolic Activation: NONE, Method: STANDARD PLATE): inactive; negative; mutagenic call (Test System: AMES SALMONELLA TYPHIMURIUM, Strain/Indicator: TA1535, Metabolic Activation: RAT, LIVER, S-9, AROCLOR 1254, Method: STANDARD PLATE): inactive; negative; mutagenic call (Test System: AMES SALMONELLA TYPHIMURIUM, Strain/Indicator: TA1537, Metabolic Activation: NONE, Method: STANDARD PLATE): inactive; negative; mutagenic call (Test System: AMES SALMONELLA TYPHIMURIUM, Strain/Indicator: TA1537, Metabolic Activation: RAT, LIVER, S-9, AROCLOR 1254, Method: STANDARD PLATE): inactive; negative; mutagenic call (Test System: CHINESE HAMSTER V-79, Strain/Indicator: V-79/6-THIOGUANINE, Metabolic Activation: NONE, Method: STANDARD PLATE): inactive; negative; mutagenic call (Test System: CHINESE HAMSTER V-79, Strain/Indicator: V-79/6-THIOGUANINE, Metabolic Activation: RAT HEPATOCYTES, Method: STANDARD PLATE): inactive; negative; mutagenic call (Test System: CHINESE HAMSTER V-79, Strain/Indicator: V-79/OUABAIN, Metabolic Activation: NONE, Method: STANDARD PLATE): inactive; negative; mutagenic call (Test System: CHINESE HAMSTER V-79, Strain/Indicator: V-79/OUABAIN, Metabolic Activation: RAT HEPATOCYTES, Method: STANDARD PLATE): inactive; negative; mutagenic call (Test System: E. COLI, Strain/Indicator: WP2, Metabolic Activation: NONE, Method: STANDARD PLATE): inactive; negative; mutagenic call (Test System: E. COLI, Strain/Indicator: WP2, Metabolic Activation: RAT, LIVER, S-9, AROCLOR 1254, Method: STANDARD PLATE): inactive; negative

**Q.** For S=C=Nc1cccc2ccccc12, which mutagenic call (Test System: AMES SALMONELLA TYPHIMURIUM, Strain/Indicator: TA97, Metabolic Activation: HAMSTER, LIVER, S-9, AROCLOR 1254 (30%), Method: PREINCUBATION) is on record?
**A.** active; positive

**Q.** And the mutagenic call (Test System: AMES SALMONELLA TYPHIMURIUM, Strain/Indicator: TA97, Metabolic Activation: NONE, Method: PREINCUBATION)?
**A.** inactive; negative

**Q.** What about the mutagenic call (Test System: AMES SALMONELLA TYPHIMURIUM, Strain/Indicator: TA97, Metabolic Activation: RAT, LIVER, S-9, AROCLOR 1254 (10 OR 30%), Method: PREINCUBATION) of the same compound?
**A.** inactive; negative

**Q.** And the mutagenic call (Test System: AMES SALMONELLA TYPHIMURIUM, Strain/Indicator: TA98, Metabolic Activation: HAMSTER, LIVER, S-9, AROCLOR 1254 (30%), Method: PREINCUBATION)?
**A.** inactive; negative

**Q.** And the mutagenic call [2]?
**A.** inactive; negative

**Q.** And the mutagenic call (Test System: AMES SALMONELLA TYPHIMURIUM, Strain/Indicator: TA98, Metabolic Activation: RAT, LIVER, S-9, AROCLOR 1254 (1O OR 30%), Method: PREINCUBATION)?
**A.** inactive; negative

**Q.** What about the mutagenic call (Test System: AMES SALMONELLA TYPHIMURIUM, Strain/Indicator: TA100, Metabolic Activation: HAMSTER, LIVER, S-9, AROCLOR 1254 (10%), Method: PREINCUBATION) of the same compound?
**A.** inactive; negative

**Q.** What about the mutagenic call (Test System: AMES SALMONELLA TYPHIMURIUM, Strain/Indicator: TA100, Metabolic Activation: HAMSTER, LIVER, S-9, AROCLOR 1254 (30%), Method: PREINCUBATION) of the same compound?
**A.** active; positive

**Q.** What about the mutagenic call (Test System: AMES SALMONELLA TYPHIMURIUM, Strain/Indicator: TA100, Metabolic Activation: NONE, Method: PREINCUBATION) of the same compound?
**A.** inactive; negative

**Q.** What about the mutagenic call (Test System: AMES SALMONELLA TYPHIMURIUM, Strain/Indicator: TA100, Metabolic Activation: RAT, LIVER, S-9, AROCLOR 1254 (10%), Method: PREINCUBATION) of the same compound?
**A.** inactive; negative

**Q.** And the mutagenic call (Test System: AMES SALMONELLA TYPHIMURIUM, Strain/Indicator: TA100, Metabolic Activation: RAT, LIVER, S-9, AROCLOR 1254 (30%), Method: PREINCUBATION)?
**A.** inactive; negative

**Q.** And the mutagenic call (Test System: AMES SALMONELLA TYPHIMURIUM, Strain/Indicator: TA1535, Metabolic Activation: HAMSTER, LIVER, S-9, AROCLOR 1254 (10 OR 30%), Method: PREINCUBATION)?
**A.** inactive; negative

**Q.** And the mutagenic call (Test System: AMES SALMONELLA TYPHIMURIUM, Strain/Indicator: TA1535, Metabolic Activation: NONE, Method: PREINCUBATION)?
**A.** inactive; negative

**Q.** And the mutagenic call (Test System: AMES SALMONELLA TYPHIMURIUM, Strain/Indicator: TA1535, Metabolic Activation: RAT, LIVER, S-9, AROCLOR 1254 (10 OR 30%), Method: PREINCUBATION)?
**A.** inactive; negative

**Q.** What about the mutagenic call (Test System: AMES SALMONELLA TYPHIMURIUM, Strain/Indicator: TA1537, Metabolic Activation: HAMSTER, LIVER, S-9, AROCLOR 1254 (30%), Method: PREINCUBATION) of the same compound?
**A.** inactive; negative

**Q.** What about the mutagenic call (Test System: E. COLI, Strain/Indicator: WP2 UVRA, Metabolic Activation: HAMSTER, LIVER, S-9, AROCLOR 1254, Method: STANDARD PLATE) of the same compound?
**A.** inactive; negative

**Q.** And the mutagenic call (Test System: E. COLI, Strain/Indicator: WP2 UVRA, Metabolic Activation: HAMSTER, LIVER, S-9, Method: STANDARD PLATE)?
**A.** inactive; negative

**Q.** And the mutagenic call (Test System: E. COLI, Strain/Indicator: WP2 UVRA, Metabolic Activation: MOUSE, LIVER, S-9, AROCLOR 1254, Method: STANDARD PLATE)?
**A.** inactive; negative

**Q.** And the mutagenic call (Test System: E. COLI, Strain/Indicator: WP2 UVRA, Metabolic Activation: MOUSE, LIVER, S-9, Method: STANDARD PLATE)?
**A.** inactive; negative

**Q.** And the mutagenic call (Test System: E. COLI, Strain/Indicator: WP2 UVRA, Metabolic Activation: NONE, Method: STANDARD PLATE)?
**A.** inactive; negative

**Q.** And the mutagenic call (Test System: E. COLI, Strain/Indicator: WP2 UVRA, Metabolic Activation: RAT, LIVER, S-9, AROCLOR 1254, Method: STANDARD PLATE)?
**A.** inactive; negative

**Q.** And the mutagenic call (Test System: E. COLI, Strain/Indicator: WP2 UVRA, Metabolic Activation: RAT, LIVER, S-9, Method: STANDARD PLATE)?
**A.** inactive; negative

**Q.** How did the mutagenic call (Test System: AMES SALMONELLA TYPHIMURIUM, Strain/Indicator: TA100, Metabolic Activation: RAT LIVER S-9, PHENOBARBITAL AND 5,6-BENZOFLAVONE, Method: PREINCUBATION) turn out when Fc1cc(F)c2cccnc2c1 was run?
**A.** active; positive

**Q.** How did the mutagenic call [1] turn out when O=[N+]([O-])c1ccc2c(Cl)nsc2c1 was run?
**A.** active; positive

**Q.** What does the source list for CC(=O)Nc1ccc(C)c(N)c1?
**A.** mutagenic call [2]: inactive; negative; mutagenic call (Test System: AMES SALMONELLA TYPHIMURIUM, Strain/Indicator: TA98, Metabolic Activation: RAT, LIVER, S-9, PHENOBARBITAL AND 5,6-BENZOFLAVONE, Method: PREINCUBATION): active; positive

**Q.** With C=C(CC(=O)OCC)C(=O)O as the compound, how does the mutagenic call (Test System: Chinese Hamster ovary (CHO) cells, Metabolic Activation: None, Method: HGPRT/6-Thioguanine) read?
**A.** inactive; negative
